The source of these data is ChEMBL document CHEMBL1201862, “PubChem BioAssay data set” (2004).

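Each compound was tested at five concentrations against cells in 96-well plates for 48 hours. Abbreviation: GI50, concentration required for 50% inhibition of growth.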 Calls of active or inactive are those of the source. Cut-off read from the data, not from the text of the source: active = GI50 up to about 1.1 µM and inactive = higher.

A word on the GI50: it is the concentration giving 50% growth inhibition.

Test systems include 786-0; A498; CCRF-CEM; HCC 2998; HCT-116; HCT-15; Hs-578T; MCF7; MOLT-4; OVCAR-5; OVCAR-8; SF-268; SF-295; SK-MEL-5; SN12C; SNB-75; UACC-257; UO-31; HOP-62; MDA-MB-435.
What all share (assay): DTP human tumour cell line panel, 48 h

`CC1C2(C)OC(=N)C(C#N)(C(C)O2)C1(C#N)C#N` (stereo not given): the GI50 in the assay with 786-0 was 22 µM (inactive); with A498, 87.7 µM (inactive); in the assay on CCRF-CEM it was 16 µM (inactive); in the assay with HCC 2998, 20.4 µM (inactive); with HCT-116, 24.4 µM (inactive); in the assay on HCT-15, 15.5 µM. Besides, the GI50 in the assay with Hs-578T was 29.4 µM (inactive); in the assay on MCF7, 24.8 µM (inactive); with MOLT-4 it was 36 µM (inactive); with OVCAR-5, 30.5 µM (inactive); with OVCAR-8, 31 µM (inactive); in the assay with SF-268, 30.8 µM (inactive). In addition, the GI50 was 90.2 µM (inactive) with SF-295; 13.1 µM (inactive) in the assay with SK-MEL-5; 16.3 µM (inactive) in the assay with SN12C; > 100 µM (inactive) with SNB-75; 20.2 µM (inactive) with UACC-257; 42.9 µM (inactive) in the assay with UO-31.
As for `CC(=O)O[C@H]1CCC2[C@@H]3CC[C@]4(C)CC(=O)C=C[C@]4(C)C3CC[C@@]21C` (stereo not given in full), the GI50 is 34.4 µM (inactive) with 786-0; 44.7 µM (inactive) in the assay with A498; 20.1 µM (inactive) with CCRF-CEM; 45.6 µM (inactive) with HCC 2998; 16.8 µM (inactive) with HCT-116; 18.7 µM in the assay on HCT-15. For the same molecule, the GI50 is 50.6 µM (inactive) with HOP-62; 40.6 µM (inactive) with MDA-MB-435; 23.2 µM (inactive) in the assay on MOLT-4; > 80.5 µM (inactive) with OVCAR-5; 17.3 µM (inactive) with OVCAR-8; 21.2 µM (inactive) in the assay on SF-268. Further, the GI50 in the assay with SF-295 was 53.3 µM (inactive); in the assay on SK-MEL-5 it was 14.8 µM (inactive); with SN12C it was 24.2 µM (inactive); with SNB-75, 46 µM (inactive); in the assay on UACC-257, 20.6 µM (inactive); with UO-31, 6.3 µM (inactive).
Turning to `Cc1ccc(Nc2nc(N)nc3c2ncn3C2OC(CO)C(O)C2O)cc1` (stereo not given), the GI50 in the assay with 786-0 was > 100 µM (inactive); in the assay with A498, > 100 µM (inactive); in the assay on CCRF-CEM, > 100 µM (inactive); with HCC 2998 it was > 100 µM (inactive); in the assay with HCT-116, > 100 µM (inactive); in the assay with HCT-15 it was above 100 µM. In addition, the GI50 in the assay with HOP-62, in the assay with MCF7, with MDA-MB-435, in the assay with MOLT-4, in the assay with OVCAR-5 and in the assay with OVCAR-8 was > 100 µM (inactive) throughout. Moreover, the GI50 with SF-295, in the assay on SK-MEL-5, with SN12C, with SNB-75, with UACC-257 and in the assay with UO-31 was > 100 µM (inactive) each time.
On to `CCOC(OC(C)=O)[C@@H]1C=C[C@H](C)N(c2ccc([N+](=O)[O-])cc2)O1` (stereo not given in full), for which the GI50 in the assay with 786-0 was 2.67 µM (inactive); in the assay on A498, 27.6 µM (inactive); in the assay on CCRF-CEM, 2.29 µM (inactive); in the assay on HCC 2998, 11.9 µM (inactive); in the assay on HCT-116 it was 1.25 µM (inactive); in the assay on HCT-15, 2.4 µM. The GI50 in the assay on HOP-62 is 10.7 µM (inactive); in the assay on MOLT-4, 1.86 µM (inactive); in the assay with OVCAR-5, 2.76 µM (inactive); with OVCAR-8, 2.02 µM (inactive); in the assay with SF-268, 3.13 µM (inactive); with SF-295, 11.4 µM (inactive). Besides, the GI50 in the assay with SK-MEL-5 was 4 µM (inactive); in the assay with SN12C it was 3.4 µM (inactive); in the assay with SNB-75, 4.79 µM (inactive); with UACC-257, 9.82 µM (inactive); in the assay with UO-31, 3.45 µM (inactive).
As to `CC(=O)OC1c2ccccc2CCCCCCC12OCCO2` (stereo not given), the GI50 with 786-0 was > 100 µM (inactive); in the assay with A498, > 100 µM (inactive); with CCRF-CEM, > 100 µM (inactive); with HCC 2998 it was > 100 µM (inactive); in the assay on HCT-116 it was > 100 µM (inactive); with HCT-15 it was 68.1 µM. Besides, the GI50 with HOP-62 was > 100 µM (inactive); with MOLT-4, 60.3 µM (inactive); with OVCAR-5 it was > 100 µM (inactive); in the assay with OVCAR-8, > 100 µM (inactive); in the assay on SF-268, > 100 µM (inactive); in the assay with SF-295 it was > 100 µM (inactive). Also, the GI50 is 55.5 µM (inactive) in the assay with SK-MEL-5; > 100 µM (inactive) in the assay on SN12C; > 100 µM (inactive) in the assay on SNB-75; 55.5 µM (inactive) with UACC-257; > 100 µM (inactive) in the assay on UO-31.
For the molecule `CC(=O)OCCOCNC(=S)N/N=C/c1ccc(Br)s1`, the GI50 with 786-0 is > 76.6 µM (inactive); with A498, > 100 µM (inactive); in the assay on CCRF-CEM, 3.74 µM (inactive); in the assay with HCC 2998, > 100 µM (inactive); in the assay on HCT-116, 55 µM (inactive); in the assay on HCT-15, above 100 µM. Also, the GI50 with HOP-62 was > 100 µM (inactive); in the assay on MOLT-4, > 26.1 µM (inactive); with OVCAR-5, > 100 µM (inactive); with OVCAR-8, > 100 µM (inactive); in the assay with SF-268, > 100 µM (inactive); with SF-295, > 76 µM (inactive). Further, the GI50 in the assay on SK-MEL-5, with SN12C, with SNB-75, with UACC-257 and in the assay with UO-31 was > 100 µM (inactive) in each case.
With `CCN(CC)CCNc1c(OC)cc(C)c2sc3ccccc3c(=O)c12`, the GI50 was 7.53 µM (inactive) in the assay with 786-0; 4.66 µM (inactive) with HCT-116; 4.06 µM in the assay on HCT-15; 10.8 µM (inactive) in the assay on HOP-62; 7.5 µM (inactive) in the assay on Hs-578T; 4.44 µM (inactive) with MCF7. The GI50 was 3.08 µM (inactive) in the assay with MDA-MB-435; 2.31 µM (inactive) with MOLT-4; 3.72 µM (inactive) in the assay with OVCAR-5; 7.82 µM (inactive) in the assay with OVCAR-8; 11 µM (inactive) with SF-268; 3.85 µM (inactive) with SF-295. Moreover, the GI50 with SK-MEL-5 was 1.91 µM (inactive); with SN12C, 2.79 µM (inactive); in the assay on SNB-75, 12.9 µM (inactive); with UACC-257, 1.82 µM (inactive); in the assay on UO-31, 6.32 µM (inactive).
Regarding `CCOC(=O)C(NC(=O)CC)(Nc1cc(C)on1)C(F)(F)F` (stereo not given), the GI50 with 786-0 is > 100 µM (inactive); in the assay with CCRF-CEM it was > 100 µM (inactive); in the assay on HCC 2998, > 100 µM (inactive); with HCT-116, > 100 µM (inactive); with HCT-15 it was above 100 µM; with Hs-578T it was > 100 µM (inactive). Also, the GI50 with MDA-MB-435, in the assay on MOLT-4, in the assay with OVCAR-5, in the assay on OVCAR-8, in the assay on SF-268 and in the assay with SK-MEL-5 was > 100 µM (inactive) in each case. Also, the GI50 in the assay on SN12C, with SNB-75, with UACC-257 and in the assay on UO-31 was > 100 µM (inactive) throughout.
For `NCCN1C(=O)C2C3c4ccccc4C(c4ccccc43)C2C1=O` (stereo not given), the GI50 was > 100 µM (inactive) in the assay with 786-0; > 100 µM (inactive) in the assay on A498; > 100 µM (inactive) with CCRF-CEM; > 100 µM (inactive) with HCC 2998; > 100 µM (inactive) in the assay with HCT-116; above 100 µM in the assay on HCT-15. Further, the GI50 in the assay on HOP-62, in the assay on MOLT-4, with OVCAR-5, in the assay on OVCAR-8, in the assay with SF-268 and in the assay on SF-295 was > 100 µM (inactive) each time. For the same molecule, the GI50 in the assay with SK-MEL-5 is > 100 µM (inactive); in the assay on SN12C, > 100 µM (inactive); in the assay with SNB-75, 43.3 µM (inactive); in the assay on UACC-257, > 100 µM (inactive); in the assay on UO-31, > 100 µM (inactive).
